{"source": "patent US20030013764A1", "about": "“Use for a pyruvate dehydrogenase activator for the treatment of ischaemia in limbs” (priority 1995, published 2003)", "key": {"[1]": {"test_system": "contracting skeletal muscle of anaesthetised dogs", "assay": "Muscle fatigue in contracting gracilis muscle of anaesthetised dogs", "format": "in vivo, Beagle dogs", "conditions": "following treatment with DCA (300 mg.kg−1 as sodium salt, infusion 45 min before contraction); 20 min stimulation at 3 Hz; fatigue=(peak tension—end tension)/peak tension", "protocol": "The invention will now be further described by reference to the accompanying, non-limiting, experimental methods. In the following expermimental methods we have used the PDH kinase inhibitor dichloroacetate to determine if inhibitors of PDH kinase can reduce the rate of fatigue in contracting skeletal muscle of anaesthetised dogs which has blood flow limited to the same extent as patients with intermittent claudication. Suitable doses of DCA include these in the range 30 to 300 mg.kg^−1. In the experimental methods which follow DCA was administered (at a dose of 300 mg.kg^−1) as the sodium salt of dichloroacetic acid.\nFemale Alderley Park Beagle dogs (12-18 kg) were pre-medicated with morphine (10 mg, i.m.) 30 minutes prior to induction of anaesthesia with sodium pentobarbitone (45 mg kg-1 i.v., Sagatal.). […] Rectal temperature was constantly monitored and maintained (range 36.2° C.-38.6° C.) with a homeothermic heating blanket (Harvard Instruments, Edenbridge. Kent. UK).\nThe left external jugular vein was cannulated for continuous administration of anaesthetic (sodium pentobarbitone 12 mg/ml at a rate of5 -6 ml/hour) using an infusion pump (injectomat S. Fresenius. Villiers. France). […] All pressures were measured using strain gauge manometers (PDCR 75. Druck Ltd. Barendeecht. Netherlands) attached to d.c. bridle amplifiers (Lectromed. MT8P. St. Peter. Jersey). […]"}, "volunteers": {"test_system": "volunteers", "conditions": "cited from earlier work"}, "angina patients": {"test_system": "angina patients", "conditions": "cited from earlier work"}, "[2]": {"test_system": "patients with class III heart failure", "conditions": "human, in vivo; cited from earlier work"}, "normal mice": {"test_system": "normal mice", "conditions": "cited from earlier work"}, "gracilis muscle": {"test_system": "gracilis muscle", "assay": "Muscle metabolites in gracilis muscle biopsies of anaesthetised dogs", "format": "in vivo, Beagle dogs", "set-up": "Lactate / Ac.carn. (acetyl carnitine) / Free carnitine: unit not given here", "conditions": "for Ac.carn. (acetyl carnitine) / Free carnitine / Lactate / PCr (phosphocreatine): DCA treated", "protocol": "Animals were divided into DCA treated and vehicle (isotonic saline) treated groups. DCA or vehicle was given after completion of the surgery by a constant infusion. 45 minutes later the contraction was started. Muscle fatigue was measured in both normal and flow limited muscles. Arterial blood samples were taken from the brachial artery and venous blood samples were taken from each gracilis muscle at rest, during contraction and following recovery. The contraction period was 20 minutes of stimulation of 3 Hz. Blood samples (0.4 ml) being taken for blood gas analysis and analysed immediately. Parameters recorded were pH, pCO2. pO2. oxygen saturation and total Haemoglobin. Further samples (1.0 ml) were taken for analysis of lactate, glucose and non esterified fatty acid (NEFA) concentration.\nFollowing resting blood samples and after drug/vehicle infusion a resting muscle biopsy (6 mm diameter Bergstrom needle. Stille, Sweden and 6 mm diameter Allendale needle, Edinburgh, Scotland), was taken from each muscle. After 20 minutes of stimulation the muscle was then freeze clamped, while still being stimulated, and a thin portion of muscle was excised and frozen in liquid nitrogen (The whole process took less than 6 seconds with the top layer of muscle being frozen within 1 second). The muscle samples were then stored in liquid nitrogen before a portion was freeze dried and analysed.\nThe muscle sample was divided into two portions, one for analysis of ATP, phosphocreatine (PCr), creatine (Cr) and intramuscular lactate (Harris. R et al., Scand. Journal Clin Lab Invest.. 33,109-120, 1974). The other portion of muscle was stored wet in liquid nitrogen. Briefly, the first portion of muscle was freeze dried, dissected free of visible connective tissue and blood and then powdered and was extracted in ice cold perchloric acid (0.5M) and neutralised with potassium bicarbonate (2.2M). Glycogen content was assayed using the method described by Harris et al. 1974 (see above).\nAcetylcarnitine, free carnitine were assessed, in the freeze dried extract, by the method described by Cederblad et al; Anal. Biochem., 185, (1990), 274-278. PDH activity (rest & exercise, active and total) from a sample of wet tissue using the method of Constantin-Teodosiu D et al.. “A sensitive radioisotopic assay of pyruvate dehydrogenase complex in human muscle tissue”. Anal. Biochem.. Volume 198, p347-351. 1991. This method is also described by Dumitru Constantin-Teodosiu. Doctoral Thesis “Regulation of pyruvate dehydrgenase complex activity and acetyl group formation in skeletal muscle during exercise”. Stockholm 1992. from the Department of Clinical Chemistry, Karolinska Institute. Huddinge University Hospital. S-141 86 Huddinge Sweden."}, "[3]": {"conditions": "angina patients undergoing catheterisation"}, "[4]": {"conditions": "Normal flow muscle after 20 min stimulation"}, "[5]": {"conditions": "Resricted flow muscle after 20 min stimulation"}}}
{"smiles": "O=C(O)C(Cl)Cl", "note": "[DCA, dichloroacetic acid]", "values": [{"measurement": "muscle fatigue", "setting": "[1]", "value": 25.0, "unit": "%"}, {"measurement": "reduction of lactate production", "setting": "volunteers; volunteers during maximal and 50% maximal workload", "value": "up to 30%"}, {"measurement": "increase in maximal work capacity", "setting": "volunteers; volunteers", "value": 10, "unit": "%"}, {"measurement": "changes in heart rate or left ventricular inotropic state (LV dp/dtmax.)", "setting": "angina patients; [3]", "value": "absence of changes"}, {"measurement": "increase in stroke volume", "setting": "angina patients; [3]", "value": 13, "unit": "%"}, {"measurement": "Myocardial efficiency", "setting": "angina patients; angina patients, increased from 24%", "value": 32, "unit": "%"}, {"measurement": "effects in patients with class III heart failure", "setting": "[2]", "value": "Beneficial effects"}, {"measurement": "increase in treadmill exercise duration", "setting": "normal mice", "value": 20, "unit": "%"}, {"measurement": "oxidation of lactate", "setting": "normal mice", "value": "increased"}, {"measurement": "Changes in Pcr", "setting": "gracilis muscle; DCA treated versus control", "value": "reduced"}, {"measurement": "Changes in lactate", "setting": "gracilis muscle; DCA treated versus control", "value": "reduced"}, {"measurement": "Ac.carn. (acetyl carnitine)", "setting": "gracilis muscle; [4]", "value": "9.6 ± 3.2"}, {"measurement": "Free carnitine", "setting": "gracilis muscle; [4]", "value": "15.5 ± 2.5"}, {"measurement": "Lactate", "setting": "gracilis muscle; [4]", "value": "5.4 ± 1.6"}, {"measurement": "PCr (phosphocreatine)", "setting": "gracilis muscle; [4]", "value": "44.7 ± 3.2"}, {"measurement": "Ac.carn. (acetyl carnitine)", "setting": "gracilis muscle; [5]", "value": "16.9 ± 2.6"}, {"measurement": "Free carnitine", "setting": "gracilis muscle; [5]", "value": "9.6 ± 2.2"}, {"measurement": "Lactate", "setting": "gracilis muscle; [5]", "value": "18.1 ± 4.0"}, {"measurement": "PCr (phosphocreatine)", "setting": "gracilis muscle; [5]", "value": "38.9 ± 3.0"}, {"measurement": "Ac.carn. (acetyl carnitine)", "setting": "gracilis muscle; Resting muscle", "value": "19.6 ± 1.0"}, {"measurement": "Free carnitine", "setting": "gracilis muscle; Resting muscle", "value": "5.4 ± 1.6"}, {"measurement": "Lactate", "setting": "gracilis muscle; Resting muscle", "value": "5.7 ± 1.4"}, {"measurement": "PCr (phosphocreatine)", "setting": "gracilis muscle; Resting muscle", "value": "55.1 ± 2.5"}, {"measurement": "Acetyl group availability", "setting": "gracilis muscle; at rest and during contraction (RF muscle), DCA treated group versus control", "value": "higher"}]}
